Assay results reported in article PMC7725003, “Systematically Studying the Optimal Amino Acid Distribution Patterns of the Amphiphilic Structure by Using the Ultrashort Amphiphiles” (Frontiers in Microbiology, 2020).
Where no end group is shown, it is not given here.

Tests used:
E. coli 25922 = assay type: cell-based, Escherichia coli; conditions: 25922, 24 h
How it was run: (§1)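 Absorbance at 492 nm after 24 h at 37°C defined the MIC as the lowest peptide level inhibiting 95% of growth. Inoculum was 0.5–1 × 10^6 CFU mL^–1 mid-log cells in MHB; peptides were diluted in 0.2% BSA.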

E. coli O78 = assay type: cell-based, Escherichia coli; conditions: O78, 24 h
How it was run: as §1

E. coli UB1005 = assay type: cell-based, Escherichia coli; conditions: UB1005, 24 h
How it was run: as §1

S. typhimurium 14028 = assay type: cell-based, Salmonella typhimurium; conditions: 14028, 24 h
How it was run: as §1

S. typhimurium 7731 = assay type: cell-based, Salmonella typhimurium; conditions: 7731, 24 h
How it was run: as §1

S. pullorum 7913 = assay type: cell-based, Salmonella pullorum; conditions: 7913, 24 h
How it was run: as §1

P. aeruginosa 27853 = assay type: cell-based, Pseudomonas aeruginosa; conditions: 27853, 24 h
How it was run: as §1

E. coli K88 = conditions: for MIC: MHB, 24 h 37°C, 95% growth inhibition; for MBC: value in brackets, >99.9% of cells killed
Description: (§2) The antimicrobial activities of the peptides were measured using a method adapted from the National Committee for Clinical Laboratory Standards (NCCLS) with some modifications ([Chou et al., 2016]). The specific procedure for these assays has been previously described. In brief, the bacterial cells were grown to a mid-logarithmic phase and diluted in MHB to an ultimate concentration of 0.5–1 × 10^6 CFU mL^–1. Subsequently, the peptides were consecutively diluted in a 0.2% BSA solution and then added to a bacterial solution in a 96-well plate at identical volumes. After incubation for 24 h at 37°C, the MICs were determined to be the lowest peptide concentration that inhibited 95% of the bacterial growth by monitoring the absorbance at 492 nm using a microplate reader. Subsequently, 50 μL of each incubation mixture was further transferred to agar plates and incubated overnight. […] Every assay was reproduced more than 3 times.

E. coli K99 = conditions: for MIC: MHB, 24 h 37°C, 95% growth inhibition
Description: as §2

Gram-negative bacteria [1] = conditions: for GM MIC: geometric mean of MICs, 9 Gram-negative strains (Table 2); for TI, Gram-negative bacteria: therapeutic index TI = MHC/GM MIC
How it was run: (§3)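 MIC is the lowest peptide concentration giving 95% growth inhibition, read at 492 nm after 24 h incubation at 37°C. Peptides were serially diluted in 0.2% BSA and added to mid-logarithmic cells at 0.5–1 × 10^6 CFU mL^–1 in MHB, following a modified NCCLS method, with more than 3 repeats.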

Gram-positive bacteria [2] = conditions: for GM MIC: geometric mean of MICs, 7 Gram-positive strains (Table 2); for TI, Gram-positive bacteria: therapeutic index TI = MHC/GM MIC
How it was run: as §3

S. aureus 25923 = assay type: cell-based, Staphylococcus aureus; conditions: 25923, 24 h
How it was run: as §1

S. aureus 29213 [3] = assay type: cell-based, Staphylococcus aureus; conditions: 29213, 24 h
How it was run: as §1

S. epidermidis 12228 = assay type: cell-based, Staphylococcus epidermidis; conditions: 12228, 24 h
How it was run: as §1

MRSA 43300 = assay type: cell-based, methicillin-resistant S. aureus; conditions: 43300, 24 h
How it was run: as §1

B. subtilis 63501 = assay type: cell-based, Bacillus subtilis; conditions: 63501, 24 h
How it was run: as §1

E. faecalis 29212 = assay type: cell-based, Enterococcus faecalis; conditions: 29212, 24 h
How it was run: as §1

[4] = tested on: Listeria monocytogenes CGMCC 1.1075; assay type: cell-based; conditions: CGMCC 1.1075, 24 h
How it was run: as §1

[5] = tested on: all of the tested bacterial strains; test: Geometric mean of MICs, all tested bacterial strains; assay type: cell-based; conditions: for GM, All: geometric mean of MICs across all tested strains; for TI, All: therapeutic index TI = MHC/GM MIC
How it was run: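 Per strain, MIC came from absorbance at 492 nm after 24 h at 37°C (≥95% inhibition), using mid-log inoculum of 0.5–1 × 10^6 CFU mL^–1 in MHB and peptide diluted in 0.2% BSA. MBC (>99.9% killed) came from overnight agar plating, and values are geometric means across strains.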

E. coli ATCC 25922 = test: Salt sensitivity assay (MIC); assay type: cell-based, Escherichia coli; conditions: for MIC, FeCl3: 4 μM FeCl3; for MIC, NH4Cl: 6 μM NH4Cl; for MIC, ZnCl2: 8 μM ZnCl2; for MIC, MgCl2: 1 mM MgCl2; for MIC, CaCl2: 2 mM CaCl2; for MIC, KCl: 4.5 mM KCl; for MIC, NaCl: 150 mM NaCl; for MIC, Control: no added salt, three independent assays
How it was run: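 Peptides diluted serially in 0.2% BSA solution were combined at identical volumes with mid-logarithmic E. coli ATCC 25922 in MHB (0.5–1 × 10^6 CFU mL^–1) in 96-well plates, with or without a physiological salt. Plates were incubated for 24 h at 37°C. MIC was the lowest concentration inhibiting 95% of growth, measured as absorbance at 492 nm on a microplate reader.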

S. aureus 29213 [6] = test: Salt sensitivity assay (MIC); assay type: cell-based, Staphylococcus aureus; conditions: for MIC, FeCl3: 4 μM FeCl3; for MIC, NH4Cl: 6 μM NH4Cl; for MIC, ZnCl2: 8 μM ZnCl2; for MIC, MgCl2: 1 mM MgCl2; for MIC, CaCl2: 2 mM CaCl2; for MIC, KCl: 4.5 mM KCl; for MIC, NaCl: 150 mM NaCl; for MIC, Control: no added salt, three independent assays
How it was run: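 Physiological salts (150 mM NaCl, 4.5 mM KCl, 6 μM NH4Cl, 8 μM ZnCl2, 1 mM MgCl2, 2mM CaCl2, 4 μM FeCl3) added to MHB. Bacteria at 0.5–1 × 10^6 CFU/mL exposed to serially diluted peptides for 24 h at 37°C. MIC read as lowest peptide concentration giving 95% growth inhibition by absorbance at 492 nm.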

Gram-negative bacteria [7] = conditions: geometric mean of MBCs, 9 Gram-negative strains (Table 2)
Gram-positive bacteria [8] = conditions: geometric mean of MBCs, 7 Gram-positive strains (Table 2)

LRRRRLLLL-NH2 [L11] was tested, and the MIC (E. coli 25922) was greater than 64 µM, the MBC (E. coli O78) was 128 µM and the MIC (E. coli O78) was 64 µM. It also gave an MIC (E. coli UB1005) greater than 64 µM, an MIC (S. typhimurium 14028) greater than 64 µM and an MIC (S. typhimurium 7731) greater than 64 µM. For the same substance, the MIC (S. pullorum 7913) was greater than 64 µM, the MIC (P. aeruginosa 27853) was greater than 64 µM and the MIC (E. coli K88) was 32 µM. For the same substance, the MBC (E. coli K88) was 64 µM, the MIC (E. coli K99) was greater than 64 µM and the “GM MIC” value (Gram-negative bacteria [1]) was 101.59 µM. The “TI, Gram-negative bacteria” value (Gram-negative bacteria [1]) was 2.52, the “GM MIC” value (Gram-positive bacteria [2]) was 57.97 µM and the “TI, Gram-positive bacteria” value (Gram-positive bacteria [2]) was 4.42. It also gave an MIC (S. aureus 25923) greater than 64 µM, an MIC (S. aureus 29213 [3]) greater than 64 µM and an MIC (S. epidermidis 12228) greater than 64 µM. The MIC (MRSA 43300) was greater than 64 µM, the MBC (B. subtilis 63501) was 16 µM and the MIC (B. subtilis 63501) was 8 µM. The MIC (E. faecalis 29212) was greater than 64 µM, the MBC [4] was 16 µM and the MIC [4] was 8 µM. The “GM, All” value [5] was 79.48 µM, the “TI, All” value [5] was 3.22 and the MIC, FeCl3 (E. coli ATCC 25922) was greater than 64 µM. It also gave an MIC, NH4Cl (E. coli ATCC 25922) greater than 64 µM, an MIC, ZnCl2 (E. coli ATCC 25922) greater than 64 µM and an MIC, MgCl2 (E. coli ATCC 25922) greater than 64 µM. It also gave an MIC, CaCl2 (E. coli ATCC 25922) greater than 64 µM, an MIC, KCl (E. coli ATCC 25922) greater than 64 µM and an MIC, NaCl (E. coli ATCC 25922) greater than 64 µM. The MIC, Control (E. coli ATCC 25922) was greater than 64 µM, the MIC, FeCl3 (S. aureus 29213 [6]) was greater than 64 µM and the MIC, NH4Cl (S. aureus 29213 [6]) was greater than 64 µM. For the same substance, the MIC, ZnCl2 (S. aureus 29213 [6]) was greater than 64 µM, the MIC, MgCl2 (S. aureus 29213 [6]) was greater than 64 µM and the MIC, CaCl2 (S. aureus 29213 [6]) was greater than 64 µM. The MIC, KCl (S. aureus 29213 [6]) was greater than 64 µM, the MIC, NaCl (S. aureus 29213 [6]) was greater than 64 µM and the MIC, Control (S. aureus 29213 [6]) was greater than 64 µM. For the same substance, the “GM MBC” value (Gram-negative bacteria [7]) was 118.51 µM and the “GM MBC” value (Gram-positive bacteria [8]) was 70.66 µM.

Work on RLLLLRRLR-NH2 [L10] yielded an MBC (E. coli 25922) of 64 µM, an MIC (E. coli 25922) of 32 µM and an MBC (E. coli O78) of 32 µM. For the same substance, the MIC (E. coli O78) was 16 µM, the MIC (E. coli UB1005) was greater than 64 µM and the MIC (S. typhimurium 14028) was greater than 64 µM. The MBC (S. typhimurium 7731) was 128 µM, the MIC (S. typhimurium 7731) was 64 µM and the MIC (S. pullorum 7913) was greater than 64 µM. It also gave an MBC (P. aeruginosa 27853) of 64 µM, an MIC (P. aeruginosa 27853) of 32 µM and an MIC (E. coli K88) of 32 µM. For the same substance, the MBC (E. coli K88) was 64 µM, the MIC (E. coli K99) was 4 µM and the MBC (E. coli K99; value in brackets, >99.9% of cells killed) was 8 µM. For the same substance, the “GM MIC” value (Gram-negative bacteria [1]) was 40.32 µM, the “TI, Gram-negative bacteria” value (Gram-negative bacteria [1]) was 6.35 and the “GM MIC” value (Gram-positive bacteria [2]) was 70.66 µM. The “TI, Gram-positive bacteria” value (Gram-positive bacteria [2]) was 3.62, the MIC (S. aureus 25923) was greater than 64 µM and the MIC (S. aureus 29213 [3]) was greater than 64 µM. It also gave an MIC (S. epidermidis 12228) greater than 64 µM, an MIC (MRSA 43300) greater than 64 µM and an MBC (B. subtilis 63501) of 32 µM. For the same substance, the MIC (B. subtilis 63501) was 16 µM, the MIC (E. faecalis 29212) was greater than 64 µM and the MBC [4] was 32 µM. The MIC [4] was 16 µM, the “GM, All” value [5] was 51.54 µM and the “TI, All” value [5] was 4.97. It also gave an MIC, FeCl3 (E. coli ATCC 25922) of 32 µM, an MIC, NH4Cl (E. coli ATCC 25922) of 32 µM and an MIC, ZnCl2 (E. coli ATCC 25922) of 32 µM. For the same substance, the MIC, MgCl2 (E. coli ATCC 25922) was 32 µM, the MIC, CaCl2 (E. coli ATCC 25922) was 32 µM and the MIC, KCl (E. coli ATCC 25922) was 32 µM. The MIC, NaCl (E. coli ATCC 25922) was 32 µM, the MIC, Control (E. coli ATCC 25922) was 32 µM and the MIC, FeCl3 (S. aureus 29213 [6]) was greater than 64 µM. For the same substance, the MIC, NH4Cl (S. aureus 29213 [6]) was greater than 64 µM, the MIC, ZnCl2 (S. aureus 29213 [6]) was greater than 64 µM and the MIC, MgCl2 (S. aureus 29213 [6]) was greater than 64 µM. The MIC, CaCl2 (S. aureus 29213 [6]) was greater than 64 µM, the MIC, KCl (S. aureus 29213 [6]) was greater than 64 µM and the MIC, NaCl (S. aureus 29213 [6]) was greater than 64 µM. For the same substance, the MIC, Control (S. aureus 29213 [6]) was greater than 64 µM, the “GM MBC” value (Gram-negative bacteria [7]) was 64.00 µM and the “GM MBC” value (Gram-positive bacteria [8]) was 86.14 µM.
